# Source: patent US10219990B2, “Solubilizing agents for UV filters in cosmetic formulations” (BASF SE, priority 2014, dated 2019)
# Experiment: Solubility tests of UV filters in solubilizing agents
# Type: physicochemical
# Conditions: stirred seven days at 25° C., UV/Vis-spectrometry; for Solubility [%] of UV filter compound of formula (BPH-02) in solubilizing agent: UV filter (BPH-02); for Solubility [%] of UV filter compound of formula (HTP-02) in solubilizing agent: UV filter (HTP-02); for Solubility [%] of UV filter compound of formula (TAT-02) in solubilizing agent: UV filter (TAT-02)
# Description: 2 ml of the solubilizing agent are filled into a 20 ml vial with cap. Afterwards 0.02 g (1%) of the respective substance (UV Filter) are weighed and added to the solvent. The vial is placed into a thermostat-controlled water bath, wherein the suspension/solution is stirred during seven days at 25° C.
# If the substance added to the solubilizing agent is fully soluble, additional substance is added until precipitation can be observed.
# After seven days, the sample is centrifuged for 30 minutes at 13000 rpm at 25° C. The supernatant is transferred into a small beaker. In case the sample is still turbid, it is filtered through a 0.2 μm non-steril Membrex 25 PET filter. Clear solutions must not be filtered. When a clear solution is obtained, the concentration of the substance is determined with UV/Vis-spectrometry. For this purpose, the sample may be diluted with a suitable solvent or, in case of lower concentrations, may be measured as it s.
# The concentration of the UV-spectroscopic results is measured with the extinction coefficient, which is determined independently with a solvent of similar polarity like that one used for dilution of the saturated solutions.
# The solubility can be calculated using the Lambert-Beer-Law equation.
Solubility [%] of UV filter compound of formula (BPH-02) in solubilizing agent,Solubility [%] of UV filter compound of formula (HTP-02) in solubilizing agent,Solubility [%] of UV filter compound of formula (TAT-02) in solubilizing agent,Molecule
11.2%,2.9%,11.9%,C 23-Guerbet-monolactate
12.2%,3.3%,13.4%,Iso-C18-monolactate
>40%,40%,23%,"CCCCCCCCCC(=O)N(C)C [Spectrasolv DMDA, reference compound]"
